Source: publication PMC11464771, “Elucidation of Spartina dimethylsulfoniopropionate synthesis genes enables engineering of stress tolerant plants” (Nature Communications, 2024)

T1: MMT from Hordeum vulgare (Hordeum vulgare, UniProt Q9MBC2)
T1 construct: gene MMT1; recombinant, probably pMALc2x (MBP fusion), E. coli
T1 sequence (Q9MBC2 1-1088): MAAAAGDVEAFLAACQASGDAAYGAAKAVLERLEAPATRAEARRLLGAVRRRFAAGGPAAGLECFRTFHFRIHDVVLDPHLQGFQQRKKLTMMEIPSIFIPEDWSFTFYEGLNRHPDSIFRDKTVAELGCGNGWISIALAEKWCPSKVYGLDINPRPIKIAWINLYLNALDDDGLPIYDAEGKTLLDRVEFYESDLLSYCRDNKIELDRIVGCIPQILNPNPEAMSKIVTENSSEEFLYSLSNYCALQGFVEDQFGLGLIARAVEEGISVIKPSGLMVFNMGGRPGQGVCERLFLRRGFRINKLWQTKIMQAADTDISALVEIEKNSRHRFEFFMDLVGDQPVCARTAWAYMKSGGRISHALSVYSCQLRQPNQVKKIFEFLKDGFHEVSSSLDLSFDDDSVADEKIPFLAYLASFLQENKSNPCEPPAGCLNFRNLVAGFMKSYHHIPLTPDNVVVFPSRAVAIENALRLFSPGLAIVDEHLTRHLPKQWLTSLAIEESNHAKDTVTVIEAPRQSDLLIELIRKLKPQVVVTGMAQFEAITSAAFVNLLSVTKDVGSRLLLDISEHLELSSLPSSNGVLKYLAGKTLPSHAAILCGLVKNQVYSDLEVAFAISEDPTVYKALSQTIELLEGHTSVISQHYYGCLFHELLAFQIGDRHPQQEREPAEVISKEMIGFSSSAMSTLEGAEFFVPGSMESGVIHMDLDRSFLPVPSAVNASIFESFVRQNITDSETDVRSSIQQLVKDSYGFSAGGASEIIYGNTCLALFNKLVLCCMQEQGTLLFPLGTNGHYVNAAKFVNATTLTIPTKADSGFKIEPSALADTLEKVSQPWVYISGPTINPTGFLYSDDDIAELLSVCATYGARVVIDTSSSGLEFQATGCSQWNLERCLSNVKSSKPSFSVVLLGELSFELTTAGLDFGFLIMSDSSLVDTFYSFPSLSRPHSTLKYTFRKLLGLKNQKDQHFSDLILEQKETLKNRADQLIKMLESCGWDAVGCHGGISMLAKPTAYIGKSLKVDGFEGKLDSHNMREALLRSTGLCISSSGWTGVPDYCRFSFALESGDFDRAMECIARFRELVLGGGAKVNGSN

T2: MMT from Arabidopsis thaliana (Arabidopsis thaliana, UniProt Q9LTB2)
T2 construct: gene MMT1; recombinant, probably pMALc2x (MBP fusion), E. coli
T2 sequence (Q9LTB2 2-1071): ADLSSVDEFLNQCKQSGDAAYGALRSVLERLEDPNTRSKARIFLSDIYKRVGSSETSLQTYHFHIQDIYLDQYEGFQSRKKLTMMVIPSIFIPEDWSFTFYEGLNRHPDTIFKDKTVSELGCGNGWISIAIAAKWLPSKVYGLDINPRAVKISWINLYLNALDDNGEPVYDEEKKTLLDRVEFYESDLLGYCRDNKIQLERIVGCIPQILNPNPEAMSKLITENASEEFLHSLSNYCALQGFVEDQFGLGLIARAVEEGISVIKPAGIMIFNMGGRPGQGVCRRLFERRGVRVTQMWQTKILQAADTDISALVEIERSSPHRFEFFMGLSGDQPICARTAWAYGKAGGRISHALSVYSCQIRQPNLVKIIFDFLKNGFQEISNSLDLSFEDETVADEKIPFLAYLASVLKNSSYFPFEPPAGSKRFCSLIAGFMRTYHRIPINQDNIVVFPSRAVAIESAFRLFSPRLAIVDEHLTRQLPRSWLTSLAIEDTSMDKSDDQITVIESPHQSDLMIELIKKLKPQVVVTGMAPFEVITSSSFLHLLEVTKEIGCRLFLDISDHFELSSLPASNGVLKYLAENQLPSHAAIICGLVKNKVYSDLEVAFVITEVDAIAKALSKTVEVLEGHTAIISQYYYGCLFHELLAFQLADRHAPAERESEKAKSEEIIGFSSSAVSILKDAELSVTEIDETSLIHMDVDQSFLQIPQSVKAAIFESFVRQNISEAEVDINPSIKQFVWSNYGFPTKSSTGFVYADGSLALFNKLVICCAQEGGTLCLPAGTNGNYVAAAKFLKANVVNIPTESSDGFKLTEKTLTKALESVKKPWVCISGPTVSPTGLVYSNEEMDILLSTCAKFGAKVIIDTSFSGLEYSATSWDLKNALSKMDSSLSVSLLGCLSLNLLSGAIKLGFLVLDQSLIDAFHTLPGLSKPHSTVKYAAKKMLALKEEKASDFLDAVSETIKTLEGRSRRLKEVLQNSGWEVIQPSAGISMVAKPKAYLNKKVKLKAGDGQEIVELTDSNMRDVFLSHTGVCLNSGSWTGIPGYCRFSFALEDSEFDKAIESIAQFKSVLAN


Legend:
[1] = molecular target: T1, MMT from Hordeum vulgare; assay: in vitro MMT assay; assay type: biochemical; settings: 1 mM L-methionine, 1 mM S-adenosylmethionine, Tris-HCl 20 mM pH 7.2, DTT 1 mM, 25 °C
[2] = molecular target: T2, MMT from Arabidopsis thaliana; assay: in vitro MMT assay; assay type: biochemical; settings: 1 mM L-methionine, 1 mM S-adenosylmethionine, Tris-HCl 20 mM pH 7.2, DTT 1 mM, 25 °C
[3] = substrate: C[S+](C)CC[C@H](N)C(=O)O; assay: NMR initial rates of DMSP-amine formation; assay type: biochemical, Sporobolus anglicus; settings: Tris-HCl 20 mM pH 7.2, 0.1 mM pyridoxal 5'-phosphate, 25 °C

Molecule	in vitro MMT assay [1]	in vitro MMT assay [2]	Km [3] [µM]
CSCC[C@H](N)C(=O)O [L-methionine]	plant MMTs from Arabidopsis thaliana and Hordeum vulgare	SaMMT1 in vitro activity was comparable to previously characterised plant MMTs from Arabidopsis thaliana	–
SaSDC (SaODC), S-methylmethionine decarboxylase (Sporobolus anglicus) (protein, full-length ORF from transcriptome, synthetic gene, pMALc2x (MBP fusion), E. coli BL21(DE3), amylose resin) MVGGSPMPMQAMLVVPGVKDRKVLSFKGDALKENDAIRSITSSTPAQRSAFHVLDLAKVVDLYRAWRRALPNVRPYYAVKCNSEPALLGALAALGAGFDCASHAEIDAVLALGVHPSSIVYANPCKPESHLEHAAAAGVNLTTYDSEEEVAKVRRCHPRCELLLRIKGPDDEEAQCDLGIKYGALADEVVPLLRAAQRAGVPVAGVAFNVGSPASRMDLYRDAIEAARAAFDAAAGLGMPPMRVLDIGGGFTAGATFEEAAAVINDALARHFGDLPYVEVISEPGRYFVKKAITLAARVIGKRTRGEVREYWIDDGVYGSFNCVIMDHYKPRPRPLVTPRPGEAKYTSTVFGPTCDSQDMVVTGYKLPEMSVGDWLVFDDMGAYTTAAGSKFNGFDTSDIKIYLAYST	–	–	2130 ± 200
